Literature values in publication PMC7211195 (Investigational New Drugs, 2019).
Read-outs that look alike come from different tables or passages of the source.

What was measured:
[1] = in rats, cited from earlier work
[2] = cited from earlier work
[3] = parameters: method as in PMID 19276246; conditions: cited from earlier work; for increase in concentration in the brain: abcb1a/1b;abcg2(−/−) mice
[4] = parameters: method as in PMID 24113148; conditions: cited from earlier work

In the case of `COc1cc2c(cc1OC)CN(CCc1ccc(NC(=O)c3cccc4c(=O)c5cccc(OC)c5[nH]c34)cc1)CC2` [Elacridar, 9,10-dihydro-5-methoxy-9-oxo-N-[4-[2-(1,2,3,4-tetrahydro-6,7-dimethoxy-2-isoquinolinyl)ethyl]phenyl]-4-acridine-carboxamide], the “bound to plasma proteins” value ([1]; ref 16) is given as 98.1 ± 1.7% and the “bound to plasma proteins” value ([1]; ref 30) is given as 99.0 ± 0.6%.
In the case of `C[C@@H](Oc1cc(-c2cnn(C3CCNCC3)c2)cnc1N)c1c(Cl)ccc(F)c1Cl` [crizotinib], the “brain accumulation after 24 h, times greater” value ([2]; 5 mg/kg b.w., knockout vs WT mice) is listed as “approximately 40 times”, the “higher BP exposure than WT mice” value ([2]; abcb1a/1b(−/−) and abcb1a/1b;abcg2(−/−) mice, 5 mg/kg b.w.) is listed as “approximately 2 times” and the “brain accumulation, times greater than in WT mice” value ([2]; abcb1a/1b(−/−) mice, dose increased ten-fold) is listed as “approximately 70 times”.
For `Cc1nc(Nc2ncc(C(=O)Nc3c(C)cccc3Cl)s2)cc(N2CCN(CCO)CC2)n1` [dasatinib], the “brain-to-plasma ratio increase with elacridar” value ([3]; WT mice) is listed as 4.4 times, the “increase in concentration in the brain” value ([3]; intraperitoneal administration) is listed as 22.7 times and the “increase in concentration in the brain” value ([3]; oral administration) is listed as 13.2 times.
In the case of `CCN(CC)CCNC(=O)c1c(C)[nH]c(/C=C2\C(=O)Nc3ccc(F)cc32)c1C` [sunitinib], the DTIBT ([4]; bcrp1(−/−) mice) is listed as 2.1, the DTIBT ([4]; mdr1a/b(−/−) mice) is listed as 3.9 and the DTIBT ([4]; mice with both knockout genes) is listed as 48.9.
